Data set [1] is classed as physicochemical. Conditions: for relative humidity at which conversion to Form B occurred: slurrying Form A only. As to the method: Slurry experiments were performed with various water activities starting with Form A only and also by conducting interconversion slurries or pre-saturating solutions with APC and then adding equal amounts of Form A and Form B. When slurrying Form A only, conversion to Form B at room temperature occurred at 67% RH, and 40% RH at 2-8° C. With the interconversion slurries, Form B was isolated from all experiments with relative humidities ranging from 50% to 70%.

Data set [2] can be described thus: Humidity stressing of Form A. Format: physicochemical. As to conditions: approximately 75% humidity (RH).
Data set [3] can be described thus: Drying of Form B in scaled-up method (low vacuum). The class given is physicochemical. Conditions: oven temperature 20-25° C., low vacuum (700-750 mbar). As to the method: An additional scaled-up method for producing Form B was developed that reduced reaction time and volume and increased yield. Isolation of Form B from Form A was carried out in 5 volumes of solvent (acetonitrile:water (95%:5% v:v)) at about 20° C. for about 1-2 hours. The drying process was carried out at an oven temperature of 20-25° C. and low vacuum (700-750 mbar). Under these drying conditions Form B was stable and no detectable Form A was formed. This method was used on a 4.5 kg batch of APC and produced Form B with a yield of 93.7%.

The nature of data set [4]: Aqueous solubility of Form B in different pH buffers. Format: physicochemical. As to conditions: thermodynamic from solid.
A short description of data set [5]: Drying studies on Form B (temperature, vacuum, milling, desiccant, low RH stressing). Format: physicochemical. As to the method:
Drying studies were performed on Form B. The drying experiments were performed under various temperatures with and without vacuum. Additionally, milling, storage under desiccant, and low RH stressing were conducted.

Molecules are shown by their SMILES. Counter-ions that a name gives are not always drawn. Like-named read-outs stand apart in the source and are kept apart here.

Turning to `NC(=O)OC[C@H](N)Cc1ccccc1` [Form A, (R)-2-amino-3-phenylpropyl carbamate hydrochloride], the “relative humidity at which conversion to Form B occurred” value in data set [1] (2-8° C.) is on record as 40 % RH; in data set [1] (room temperature) it was 67 % RH. In data set [2], the “solid form after humidity stressing” value is “Partial conversion to Form B”.

For `NC(=O)OC[C@H](N)Cc1ccccc1` [Form B, (R)-2-amino-3-phenylpropyl carbamate hydrochloride], the “relative stability of solid forms” value in data set [1] (interconversion slurry of Form A and Form B, approximately 50% RH or greater at room temperature) is recorded as “more stable form”. The “stability of solid form on drying” value in data set [3] is “stable”. The solubility was 733 mg/mL in data set [4] (aqueous buffer, Buffer solution pH 4.5, pH (buffer) measured starting conditions 4.5, pH (buffered sample) 5.7, read-out: Solubility (mg/ml mean of triplicates)); 742 mg/mL in data set [4] (aqueous buffer, Buffer solution pH 5.5, pH (buffer) measured starting conditions 5.5, pH (buffered sample) 6.0, read-out: Solubility (mg/ml mean of triplicates)); 746 mg/mL in data set [4] (aqueous buffer, Buffer solution pH 7.4, pH (buffer) measured starting conditions 7.4, pH (buffered sample) 6.4, read-out: Solubility (mg/ml mean of triplicates)); greater than 700 mg/mL in data set [4] (aqueous buffers of different pH, aqueous buffer, different pH buffers, read-out: aqueous solubility); 700 to 750 mg/mL in data set [4] (buffer solution, aqueous buffer, pH 1-6.5, read-out: solubility in buffer solution); 732 mg/mL in data set [4] (simulated gastric fluid, Buffer solution pH 1.2, pH (buffer) measured starting conditions 1.2, pH (buffered sample) 4.5, read-out: Solubility (mg/ml mean of triplicates)). Further, the “stability of solid form (overall result of the drying studies)” value in data set [5] (low RH or elevated temperature) is “not stable”. Further, the “solid form after drying/stress” value in data set [5] (vacuum drying at 50° C. 1 day, heating at 80° C. 1 day, milling) is “Full dehydration to Form A”; in data set [5] (vacuum drying at ambient temperature 1 day, heating at 40° C. 1 day, storage under desiccant 1 day, stressing at 33% RH 2 weeks) it was “Partial conversion to Form A”.

The record behind these values is patent US12384743B2, “Compositions comprising (R)-2-amino-3-phenylpropyl carbamate and uses thereof” (priority 2016, dated 2025).
